In PMC8079033, “Design, synthesis, anticancer evaluation, and molecular modelling studies of novel tolmetin derivatives as potential VEGFR-2 inhibitors and apoptosis inducers” (Journal of Enzyme Inhibition and Medicinal Chemistry, 2021):

Legend:
Assay in all cases: NCI 60-cell line one-dose antiproliferative screen (SRB)
Format in all cases: cell-based
A498 = conditions: Homo sapiens, read-out: growth inhibition % (GI%)
Summary of the method: (§1)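 Seed cells; incubate 24 h; fix time-zero plates with TCA; add compound to 10 µM; incubate 48 h at 37 °C; fix in cold TCA; stain with 0.4% SRB; solubilise in 10 mM Tris base; read 515 nm.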

A549/ATCC = conditions: Homo sapiens, read-out: growth inhibition % (GI%)
Summary of the method: as §1

CAKI-1 = conditions: Homo sapiens, read-out: growth inhibition % (GI%)
Summary of the method: as §1

CCRF-CEM = conditions: Homo sapiens, read-out: growth inhibition % (GI%)
Summary of the method: as §1

EKVX = conditions: Homo sapiens, read-out: growth inhibition % (GI%)
Summary of the method: as §1

HCT-15 = conditions: Homo sapiens, read-out: growth inhibition % (GI%)
Summary of the method: as §1

HL-60 (TB) = conditions: Homo sapiens, read-out: growth inhibition % (GI%)
Summary of the method: as §1

HOP-62 = conditions: Homo sapiens, read-out: growth inhibition % (GI%)
Summary of the method: as §1

IGROV1 = conditions: Homo sapiens, IGROV-1, read-out: growth inhibition % (GI%)
Summary of the method: as §1

LOX IMVI = conditions: Homo sapiens, read-out: growth inhibition % (GI%)
Summary of the method: as §1

M14 = conditions: Homo sapiens, read-out: growth inhibition % (GI%)
Summary of the method: as §1

MCF7 = conditions: Homo sapiens, read-out: growth inhibition % (GI%)
Summary of the method: as §1

MDA-MB-231/ATCC = conditions: Homo sapiens, read-out: growth inhibition % (GI%)
Summary of the method: as §1

MDA-MB-435 = conditions: Homo sapiens, read-out: growth inhibition % (GI%)
Summary of the method: as §1

MDA-MB-468 = conditions: Homo sapiens, read-out: growth inhibition % (GI%)
Summary of the method: as §1

NCI-H226 = conditions: Homo sapiens, read-out: growth inhibition % (GI%)
Summary of the method: as §1

NCI-H322M = conditions: Homo sapiens, read-out: growth inhibition % (GI%)
Summary of the method: as §1

NCI-H460 = conditions: Homo sapiens, read-out: growth inhibition % (GI%)
Summary of the method: as §1

NCI-H522 = conditions: Homo sapiens, read-out: growth inhibition % (GI%)
Summary of the method: as §1

OVCAR-4 = conditions: Homo sapiens, read-out: growth inhibition % (GI%)
Summary of the method: as §1

OVCAR-5 = conditions: Homo sapiens, read-out: growth inhibition % (GI%)
Summary of the method: as §1

OVCAR-8 = conditions: Homo sapiens, read-out: growth inhibition % (GI%)
Summary of the method: as §1

PC-3 = conditions: Homo sapiens, read-out: growth inhibition % (GI%)
Summary of the method: as §1

RPMI-8226 = conditions: Homo sapiens, read-out: growth inhibition % (GI%)
Summary of the method: as §1

RXF 393 = conditions: Homo sapiens, read-out: growth inhibition % (GI%)
Summary of the method: as §1

SF-295 = conditions: Homo sapiens, read-out: growth inhibition % (GI%)
Summary of the method: as §1

SK-MEL-5 = conditions: Homo sapiens, read-out: growth inhibition % (GI%)
Summary of the method: as §1

SN 12 C = conditions: Homo sapiens, SN12C, read-out: growth inhibition % (GI%)
Summary of the method: as §1

SNB-19 = conditions: Homo sapiens, read-out: growth inhibition % (GI%)
Summary of the method: as §1

SNB-75 = conditions: Homo sapiens, read-out: growth inhibition % (GI%)
Summary of the method: as §1

SW-620 = conditions: Homo sapiens, read-out: growth inhibition % (GI%)
Summary of the method: as §1

T-47D = conditions: Homo sapiens, T47D, read-out: growth inhibition % (GI%)
Summary of the method: as §1

U251 = conditions: Homo sapiens, U-251, read-out: growth inhibition % (GI%)
Summary of the method: as §1

UO-31 = conditions: Homo sapiens, read-out: growth inhibition % (GI%)
Summary of the method: as §1

Cc1ccc(C(=O)c2ccc(CC(=O)NN=Cc3c[nH]c4ccccc34)n2C)cc1 [Compound 5f, N′-((1H-Indol-3-yl)methylene)-2–(1-methyl-5–(4-methylbenzoyl)-1H-pyrrol-2-yl) acetohydrazide]
inhibition at 10 µM (A498): 15.6%
inhibition at 10 µM (A549/ATCC): 15.4%
inhibition at 10 µM (CAKI-1): 17%
inhibition at 10 µM (CCRF-CEM): 24.6%
inhibition at 10 µM (EKVX): 17.7%
inhibition at 10 µM (HCT-15): 16.8%
inhibition at 10 µM (HL-60 (TB)): 27%
inhibition at 10 µM (HOP-62): < 10%
inhibition at 10 µM (IGROV1): 15.2%
inhibition at 10 µM (LOX IMVI): 16.5%
inhibition at 10 µM (M14): < 10%
inhibition at 10 µM (MCF7): 27%
inhibition at 10 µM (MDA-MB-231/ATCC): 12.4%
inhibition at 10 µM (MDA-MB-435): < 10%
inhibition at 10 µM (MDA-MB-468): 16.8%
inhibition at 10 µM (NCI-H226): < 10%
inhibition at 10 µM (NCI-H322M): < 10%
inhibition at 10 µM (NCI-H460): < 10%
inhibition at 10 µM (NCI-H522): 18.7%
inhibition at 10 µM (OVCAR-4): 11.1%
inhibition at 10 µM (OVCAR-5): < 10%
inhibition at 10 µM (OVCAR-8): < 10%
inhibition at 10 µM (PC-3): < 10%
inhibition at 10 µM (RPMI-8226): 15.9%
inhibition at 10 µM (RXF 393): < 10%
inhibition at 10 µM (SF-295): < 10%
inhibition at 10 µM (SK-MEL-5): < 10%
inhibition at 10 µM (SN 12 C): < 10%
inhibition at 10 µM (SNB-19): 12.5%
inhibition at 10 µM (SNB-75): 25.5%
inhibition at 10 µM (SW-620): < 10%
inhibition at 10 µM (T-47D): 22.1%
inhibition at 10 µM (U251): 10.4%
inhibition at 10 µM (UO-31): 32.8%

Cc1ccc(C(=O)c2ccc(CC(=O)NN=Cc3ccc(O)cc3O)n2C)cc1 [Compound 5c, N′-(2,4-Dihydroxybenzylidene)-2–(1-methyl-5–(4-methylbenzoyl)-1H-pyrrol-2-yl) acetohydrazide]
inhibition at 10 µM (A498): 12.6%
inhibition at 10 µM (A549/ATCC): 53.4%
inhibition at 10 µM (CAKI-1): 53.4%
inhibition at 10 µM (CCRF-CEM): 83.2%
inhibition at 10 µM (EKVX): 65.8%
inhibition at 10 µM (HCT-15): 83.2%
inhibition at 10 µM (HL-60 (TB)): 95.5%
inhibition at 10 µM (HOP-62): 59.4%
inhibition at 10 µM (IGROV1): 58.3%
inhibition at 10 µM (LOX IMVI): 81.2%
inhibition at 10 µM (M14): 71.2%
inhibition at 10 µM (MCF7): 60.8%
inhibition at 10 µM (MDA-MB-231/ATCC): 48.6%
inhibition at 10 µM (MDA-MB-435): 36.9%
inhibition at 10 µM (MDA-MB-468): 53.2%
inhibition at 10 µM (NCI-H226): 34.3%
inhibition at 10 µM (NCI-H322M): 62%
inhibition at 10 µM (NCI-H460): 78.9%
inhibition at 10 µM (NCI-H522): 44.5%
inhibition at 10 µM (OVCAR-4): 79.3%
inhibition at 10 µM (OVCAR-5): 36.6%
inhibition at 10 µM (OVCAR-8): 51.6%
inhibition at 10 µM (PC-3): 38.9%
inhibition at 10 µM (RPMI-8226): 51.6%
inhibition at 10 µM (RXF 393): 50.3%
inhibition at 10 µM (SF-295): 52.8%
inhibition at 10 µM (SK-MEL-5): 60.7%
inhibition at 10 µM (SN 12 C): 44.3%
inhibition at 10 µM (SNB-19): 50.6%
inhibition at 10 µM (SNB-75): 68.9%
inhibition at 10 µM (SW-620): 57.8%
inhibition at 10 µM (T-47D): 49.8%
inhibition at 10 µM (U251): 62.4%
inhibition at 10 µM (UO-31): 80.2%

Cc1ccc(C(=O)c2ccc(CC(=O)NN3C(=O)C=CC3=O)n2C)cc1 [Compound 7b, N-(2,5-Dioxo-2,5-dihydro-1H-pyrrol-1-yl)-2–(1-methyl-5–(4-methylbenzoyl)-1H-pyrrol-2-yl)acetamide]
inhibition at 10 µM (A498): 10.7%
inhibition at 10 µM (A549/ATCC): 12.8%
inhibition at 10 µM (CAKI-1): 20.3%
inhibition at 10 µM (CCRF-CEM): < 10%
inhibition at 10 µM (EKVX): 25.7%
inhibition at 10 µM (HCT-15): < 10%
inhibition at 10 µM (HL-60 (TB)): 10.6%
inhibition at 10 µM (HOP-62): 10.4%
inhibition at 10 µM (IGROV1): 22.2%
inhibition at 10 µM (LOX IMVI): 11.1%
inhibition at 10 µM (M14): < 10%
inhibition at 10 µM (MCF7): 13.2%
inhibition at 10 µM (MDA-MB-231/ATCC): 11.6%
inhibition at 10 µM (MDA-MB-435): < 10%
inhibition at 10 µM (MDA-MB-468): < 10%
inhibition at 10 µM (NCI-H226): 22.1%
inhibition at 10 µM (NCI-H322M): < 10%
inhibition at 10 µM (NCI-H522): 15.9%
inhibition at 10 µM (OVCAR-4): < 10%
inhibition at 10 µM (OVCAR-5): < 10%
inhibition at 10 µM (OVCAR-8): < 10%
inhibition at 10 µM (PC-3): 10.7%
inhibition at 10 µM (RPMI-8226): < 10%
inhibition at 10 µM (RXF 393): 13%
inhibition at 10 µM (SF-295): < 10%
inhibition at 10 µM (SK-MEL-5): < 10%
inhibition at 10 µM (SN 12 C): 14.8%
inhibition at 10 µM (SNB-19): 11%
inhibition at 10 µM (SNB-75): 16%
inhibition at 10 µM (SW-620): < 10%
inhibition at 10 µM (T-47D): 25.5%
inhibition at 10 µM (U251): < 10%
inhibition at 10 µM (UO-31): 35.3%

Cc1ccc(C(=O)c2ccc(CC(=O)NNC(=O)Nc3ccc(Cl)c(C(F)(F)F)c3)n2C)cc1 [Compound 8c, N-(4-Chloro-3-(trifluoromethyl)phenyl)-2–(2-(1-methyl-5–(4-methylbenzoyl)-1H-pyrrol-2-yl)acetyl)hydrazinecarboxamide]
inhibition at 10 µM (A498): 18.3%
inhibition at 10 µM (A549/ATCC): 21.7%
inhibition at 10 µM (CAKI-1): 35.2%
inhibition at 10 µM (CCRF-CEM): < 10%
inhibition at 10 µM (EKVX): < 10%
inhibition at 10 µM (HCT-15): 10.9%
inhibition at 10 µM (HOP-62): 20%
inhibition at 10 µM (IGROV1): 36.1%
inhibition at 10 µM (LOX IMVI): 10.5%
inhibition at 10 µM (M14): 11.7%
inhibition at 10 µM (MCF7): 21.7%
inhibition at 10 µM (MDA-MB-231/ATCC): 16.7%
inhibition at 10 µM (MDA-MB-435): 20.7%
inhibition at 10 µM (MDA-MB-468): 17.5%
inhibition at 10 µM (NCI-H226): < 10%
inhibition at 10 µM (NCI-H322M): 14.4%
inhibition at 10 µM (NCI-H460): 16.8%
inhibition at 10 µM (NCI-H522): 21.1%
inhibition at 10 µM (OVCAR-5): 10.9%
inhibition at 10 µM (OVCAR-8): 10.9%
inhibition at 10 µM (PC-3): 22.4%
inhibition at 10 µM (RPMI-8226): 11.3%
inhibition at 10 µM (RXF 393): < 10%
inhibition at 10 µM (SF-295): < 10%
inhibition at 10 µM (SK-MEL-5): 22.3%
inhibition at 10 µM (SN 12 C): 10.5%
inhibition at 10 µM (SNB-19): 25.8%
inhibition at 10 µM (SNB-75): 35.7%
inhibition at 10 µM (SW-620): 10.6%
inhibition at 10 µM (T-47D): 13.8%
inhibition at 10 µM (U251): < 10%
inhibition at 10 µM (UO-31): 38.4%
